The nature of data set [1]: Total clearance in rat at 1 mg/kg, iv. Format: ADME, organism-based. The note with it: in vivo.
Data set [2] is described as follows: Oral bioavailability in rat at 5 mg/kg. The format is ADME, organism-based. The note with it: in vivo.
Data set [3] is described as follows: Apparent permeability from apical side to basolateral side in MDCK cells at 10 uM after 3 hrs by LC-MS/MS analysis. The format is ADME, cell-based, Canis lupus familiaris. The note with it: dog.
Data set [4] has as its target Tyrosine-protein kinase BTK (Mus musculus, UniProt P35991).
The conditions of data set [5]: buffer, pH 7.4.
Description: Kinetic solubility of the compound at pH 7.4
Data set [6] deals with Rattus norvegicus. The data set can be described thus: Antiinflammatory activity in Lewis rat CIA model assessed as reduction in ankle thickness at 0.05 mg/kg measured between day 10 and day 17. The format is functional, organism-based.
Data set [7] has as its target T1, Tyrosine-protein kinase BTK (Homo sapiens, UniProt Q06187).
Description: Inhibition of recombinant human full length His-tagged BTK expressed in baculovirus expression system by Z-LYTE assay
In data set [8] the target is T1, Tyrosine-protein kinase BTK. This is another data set of the same source.
Description: Inhibition of BTK in goat anti-human IgM F(ab')2-stimulated human whole blood assessed as suppression of BCR-induced CD69 expression on B cells preincubated for 1 hr followed by blood stimulation measured after 18 hrs by FACS analysis
A short description of data set [9]: Total clearance in mouse. The format is ADME, organism-based. Particulars: in vivo.
Data set [10] can be described thus: Total clearance in dog. Particulars: in vivo. Format: ADME, Canis lupus familiaris.
Data set [11] can be described thus: Total clearance in cynomolgus monkey. Format: ADME, Macaca fascicularis. Particulars: in vivo.
Data set [12] relates to Mus musculus. The data set can be described thus: Oral bioavailability in mouse at 5 mg/kg. The format is ADME, organism-based. Particulars: in vivo.
Data set [13] deals with Mus musculus. The experiment in a line: Oral bioavailability in mouse at 100 mg/kg. Particulars: in vivo. The format is ADME, organism-based.
The test system of data set [14] is Rattus norvegicus. The data set can be described thus: Oral bioavailability in rat at 100 mg/kg. Format: ADME, organism-based. The note with it: in vivo.
In the next data set the test system is Canis familiaris. The experiment in a line: Oral bioavailability in dog at 5 mg/kg. Format: ADME, organism-based, Canis lupus familiaris. Particulars: in vivo.
In data set [15] the test system is Rattus norvegicus. The experiment in a line: Antiinflammatory activity in Lewis rat CIA model assessed as reduction in ankle thickness administered via oral gavage as bid measured between day 10 and day 17. Format: functional.

Molecules are shown by their SMILES. Activity calls are given as the source filed them. The rule behind the calls is not given here.

Sequence of Tyrosine-protein kinase BTK (Mus musculus, UniProt P35991) (P35991 whole entry): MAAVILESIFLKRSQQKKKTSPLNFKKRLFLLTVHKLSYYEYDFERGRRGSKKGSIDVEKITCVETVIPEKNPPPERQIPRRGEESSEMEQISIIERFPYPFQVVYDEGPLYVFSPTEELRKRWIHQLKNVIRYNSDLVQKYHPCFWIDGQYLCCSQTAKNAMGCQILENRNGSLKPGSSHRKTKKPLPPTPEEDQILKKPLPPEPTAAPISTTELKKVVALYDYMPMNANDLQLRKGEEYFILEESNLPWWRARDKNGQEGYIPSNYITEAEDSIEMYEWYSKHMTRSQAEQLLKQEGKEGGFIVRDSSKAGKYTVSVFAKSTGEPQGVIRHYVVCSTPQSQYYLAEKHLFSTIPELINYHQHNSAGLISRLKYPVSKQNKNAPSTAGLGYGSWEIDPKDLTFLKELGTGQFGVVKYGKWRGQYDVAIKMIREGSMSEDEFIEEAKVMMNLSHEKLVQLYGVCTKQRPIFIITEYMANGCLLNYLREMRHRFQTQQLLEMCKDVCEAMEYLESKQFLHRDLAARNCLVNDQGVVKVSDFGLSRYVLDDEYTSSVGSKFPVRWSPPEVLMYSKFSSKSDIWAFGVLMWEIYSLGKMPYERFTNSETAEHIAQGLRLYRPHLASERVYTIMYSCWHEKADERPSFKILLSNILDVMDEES
T1 sequence (Q06187 whole entry): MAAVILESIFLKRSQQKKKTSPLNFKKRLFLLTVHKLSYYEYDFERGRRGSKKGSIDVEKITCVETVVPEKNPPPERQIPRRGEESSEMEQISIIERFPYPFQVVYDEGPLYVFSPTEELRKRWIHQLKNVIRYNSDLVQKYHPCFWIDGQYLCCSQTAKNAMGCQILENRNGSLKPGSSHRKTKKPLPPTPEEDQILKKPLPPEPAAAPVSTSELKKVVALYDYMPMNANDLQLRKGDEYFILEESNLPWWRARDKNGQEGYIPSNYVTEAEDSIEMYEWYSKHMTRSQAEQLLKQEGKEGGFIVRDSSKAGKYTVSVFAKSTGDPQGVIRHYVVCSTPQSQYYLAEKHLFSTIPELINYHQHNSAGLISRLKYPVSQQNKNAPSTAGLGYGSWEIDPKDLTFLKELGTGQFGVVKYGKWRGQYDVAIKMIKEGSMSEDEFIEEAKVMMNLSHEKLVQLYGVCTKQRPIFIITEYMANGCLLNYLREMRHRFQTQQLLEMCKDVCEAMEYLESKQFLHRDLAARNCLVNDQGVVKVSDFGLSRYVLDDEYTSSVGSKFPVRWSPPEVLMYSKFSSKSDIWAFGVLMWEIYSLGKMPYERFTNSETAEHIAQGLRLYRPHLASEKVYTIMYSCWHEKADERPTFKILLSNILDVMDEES

One may read the clearance as the volume of plasma or blood freed of the substance per unit of time. In general, bioavailability refers to the share of a dose that reaches the circulation, judged against a reference dose that is usually intravenous. What is called Papp A→B is the apparent permeability from the apical to the basolateral side of a cell layer. For orientation: IC50 means the point on the concentration scale where inhibition reaches its midpoint. For `Cn1cc(-c2cc(F)cc(N3CCn4c(cc5c4CCCC5)C3=O)c2CO)cc(Nc2ccc(N3CCN(C4COC4)CC3)cn2)c1=O`, in data set [1], the clearance stood at 20 mL/min/kg. In data set [2], the bioavailability was found to be 27%. Moreover, the Papp A→B at 3 h, 10 µM in data set [3] is more than 10 ×10⁻⁶ cm/s. Besides, the IC50 in [4] turned out to be 10 nM. The compound also yielded a Kinetic_solubility in [5] of 73 µM.
For `CN1CCN(c2ccc(Nc3cc(-c4cc(F)cc(N5CCn6c(cc7c6CCCC7)C5=O)c4CO)cn(C)c3=O)nc2)CC1` the same measures were 37 mL/min/kg, 52%, 1 to 10 ×10⁻⁶ cm/s, 22 nM and 71 µM.
Compound `Cn1cc(-c2cccc(N3CCc4c(sc5c4CCCC5)C3=O)c2CO)cc(Nc2ccncn2)c1=O` came in with a bioavailability in data set [2] of 90%.
With `C[C@@H]1C[C@H]2[C@@H]3CCC4=CC(=O)C=C[C@]4(C)[C@@]3(F)[C@@H](O)C[C@]2(C)[C@@]1(O)C(=O)CO`, the result with Rattus norvegicus [6] was Active.
Turning to `CN1CCN(c2ccc(Nc3cc(-c4cccc(N5CCc6c(sc7c6CC(C)(C)C7)C5=O)c4CO)cn(C)c3=O)nc2)CC1`, the clearance in [1] came to 29 mL/min/kg. In addition, the bioavailability in data set [2] was found to be 37%.
In turn, `CN1CCN(c2ccc(Nc3cc(-c4cccc(N5CCn6c(cc7c6CCCC7)C5=O)c4CO)cn(C)c3=O)nc2)CC1` came in with a clearance in [1] of 40 mL/min/kg. In addition, the bioavailability in data set [2] came to 20%. Moreover, the Papp A→B at 3 h, 10 µM in data set [3] was in the range of 1 to 10 ×10⁻⁶ cm/s. In addition, the concentration for half-maximal inhibition (IC50) in data set [7] was found to be 4 nM; in [4] it was 107 nM; in [8] it was 45 nM. Further, in data set [5], the Kinetic_solubility came out at 115 µM.
As for `Cn1cc(-c2cccc(N3CCn4c(cc5c4CCCC5)C3=O)c2CO)cc(Nc2ccc(N3CCN(C4COC4)CC3)cn2)c1=O`, in data set [1], the clearance came out at 14 mL/min/kg. In addition, in data set [2], the bioavailability came out at 46%. Moreover, in data set [3], the Papp A→B at 3 h, 10 µM is 1 to 10 ×10⁻⁶ cm/s. Further, the IC50 in data set [7] was determined as 8 nM; in [4], 137 nM; in data set [8] it was 69 nM. This compound yielded a Kinetic_solubility in data set [5] of 99 µM.
Consider `Cn1cc(-c2cccc(N3CCc4c(sc5c4CC(C)(C)C5)C3=O)c2CO)cc(Nc2ccncn2)c1=O`, for which the clearance was 22 mL/min/kg in data set [9], 7 mL/min/kg in data set [10] and 17 mL/min/kg in data set [11]. In addition, the F is given as 77% in the data set on Mus musculus [12], 45% with Mus musculus [13], 23% in the data set with Rattus norvegicus [14] and 27% in the data set with Canis familiaris. Moreover, the Activity entry in the data set on Rattus norvegicus [15] is “Dose-dependent effect”.
As for `Cc1c(NC(=O)c2cc3c(s2)CCCC3)cccc1-c1cc(Nc2ccncn2)c(=O)n(C)c1`, the clearance in [1] was 2 mL/min/kg. The compound also had a bioavailability in data set [2] of 45%. The IC50 in data set [7] stood at 42 nM; in data set [4], 740 nM.
For the compound `Cn1cc(-c2cccc(N3CCc4cc(C(C)(C)C)ccc4C3=O)c2CO)cc(Nc2ccncn2)c1=O`, half-maximal inhibition in data set [4] (IC50) required 51 nM. The compound also came in with a Kinetic_solubility in [5] of 2 µM.
